The record followed here is patent US6469142B1, “Human N-methyl-D-aspartate receptor subunits, nucleic acids encoding same and uses therefor” (Merck & Co., Inc., priority 1993, dated 2002).

In one assay the target is T1, human NMDAR1A + NMDAR2A (Homo sapiens, UniProt Q05586+Q12879).
T1 construct: to generate the full-length construct NMDAR1A; Full-length DNAs encoding human NMDA receptor subunits have been inserted into vectors pcDNA1, pMMTVT7(+), pCMV-T7-2 and pCMV-T7-3; expressed in transfected cells; host or cells: Xenopus oocytes co-injected with in vitro transcripts
Kind of assay: Two-electrode voltage clamp of Xenopus oocytes co-injected with NMDAR1A and pCMV-hNMDAR2A-3(53) transcripts. It counts as cell-based. How it is done:
(§1) Xenopus oocytes were injected with in vitro transcripts prepared from constructs containing DNA encoding human NMDA receptor NMDAR1 and NMDAR2 subunits. Electrophysiological measurements of the oocyte transmembrane currents were made using the two-electrode voltage clamp technique (see e.g., Stuhmer (1992) Meth. Enzymol. 207:319-339).
(§2) Recombinant capped transcripts of NMDA receptor subunit cDNAs contained in constructs NMDAR1A, NMDAR1-I63, NMDAR1-I63-Δ204, NMDAR1-Δ1087, NMDAR1-Δ363, and pCMV-26-NotI-24 were synthesized from linearized plasmids using the mCAP RNA Capping Kit (Cat. #200350, Stratagene, Inc., La Jolla, Calif.). For experiments in which NMDAR2A or NMDAR2B and NMDAR1 or NMDAR1-I63 transcripts were co-injected into Xenopus oocytes, the transcripts were synthesized from linearized constructs NMDAR1A, NMDAR1-I63, pCMV-hNMDAR2A-3(53), pCMV-26-NotI-24 and pBS-hNMDAR2B using mMessage mMachine (Ambion, catalog #1344, Austin, Tex.). The mass of each synthesized transcript was determined by UV absorbance and the integrity of each transcript was determined by electrophoresis through an agarose gel.
(§3) Xenopus oocytes were injected with 12.5-50 ng of one or more NMDA receptor subunit transcripts per oocyte. The preparation and injection of oocytes were carried out as described by Dascal [(1987) Crit. Rev. Biochem. 22:317-387]. […]
(In two-electrode clamp one electrode senses voltage and the other passes current.)

Assay [1] concerns the target T2, human NMDAR1A + NMDAR2A + NMDAR2C (Homo sapiens, UniProt Q05586+Q12879+Q14957).
T2 construct: other: 50 ng each transcript; co-applied with 100 μM NMDA; mean±S.D. of
Description: cell-based. As for the experimental part:
as §1, §2, §3

The target of another assay is NMDA receptors. Description: [3H]-CGP39653 binding to rat buffy coat homogenate. As to conditions: 150 μg rat buffy coat homogenate; 60 min at 4° C.; read-out: Kd (Scatchard analysis, single class of binding sites). How it is done: 21:161]. […] The wash step is repeated once more. The final suspension is divided into aliquots, centrifuged.
The binding of [^3H]-CGP39653 to rat brain membranes is carried out as described by Sills et al. [(1991) Eur. J. Pharmacol. 192:19]. The buffy coat membrane pellet is resuspended in 50 volumes of 5 mM Tris-HCl containing 10 mM EDTA, pH 7.7, and incubated for 10 min. at 37° C. The supernatant is centrifuged at 48,000×g for 10 min. at 4° C. The wash step is repeated once and the pellet is resuspended in 10 ml of 5 mM Tris-HCl containing 10 mM EDTA, pH 7.7. […] Unbound radioactivity is removed with two washes of 3 ml each of ice-cold buffer.
Saturation analysis of [^3H]-CGP39653 binding was carried out by incubating 150 μg of rat buffy coat homogenate with increasing concentrations of [^3H]-CGP39653 for 60 min at 4° C.

Assay [2] has as its system recombinant human NMDA receptors. Kind of assay: Antagonist block of agonist-induced currents in oocytes injected with NMDA receptor subunit transcripts (summary of Table 1). It counts as cell-based. The settings on record: 0.1-1.0 mM MgCl2 or 1 μM MK801. As for the experimental part:
as §1
Xenopus oocytes were injected with 12.5-50 ng of one or more NMDA receptor subunit transcripts per oocyte. The preparation and injection of oocytes were carried out as described by Dascal [(1987) Crit. Rev. Biochem. 22:317-387]. Two-to-six days following mRNA injection, the oocytes were examined using the two-electrode voltage clamp technique. The cells were bathed in Ringer's solution (115 mM NaCl, 2.5 mM KCl, 1.8 mM CaCl2, 10 mM HEPES, pH 7.3), and the membrane potential was clamped at −80 to −100 mV. Drugs were applied by pipetting 6.0 μl aliquots of drug-containing solution directly into the bath, or by using gravity-feed into a Warner Instruments chamber (volume=110 μl) at a flow rate of 8 ml/min. The data were sampled at 2-5 Hz with a Labmaster data acquisition board in a PC-386 using AXOTAPE version 1.2 (Axon Instruments, Foster City, Calif.) software. The data were exported to a laser printer or plotted using Sigmaplot version 5.0. […]

T1 sequence (Q12879 23-1464, other chains not shown): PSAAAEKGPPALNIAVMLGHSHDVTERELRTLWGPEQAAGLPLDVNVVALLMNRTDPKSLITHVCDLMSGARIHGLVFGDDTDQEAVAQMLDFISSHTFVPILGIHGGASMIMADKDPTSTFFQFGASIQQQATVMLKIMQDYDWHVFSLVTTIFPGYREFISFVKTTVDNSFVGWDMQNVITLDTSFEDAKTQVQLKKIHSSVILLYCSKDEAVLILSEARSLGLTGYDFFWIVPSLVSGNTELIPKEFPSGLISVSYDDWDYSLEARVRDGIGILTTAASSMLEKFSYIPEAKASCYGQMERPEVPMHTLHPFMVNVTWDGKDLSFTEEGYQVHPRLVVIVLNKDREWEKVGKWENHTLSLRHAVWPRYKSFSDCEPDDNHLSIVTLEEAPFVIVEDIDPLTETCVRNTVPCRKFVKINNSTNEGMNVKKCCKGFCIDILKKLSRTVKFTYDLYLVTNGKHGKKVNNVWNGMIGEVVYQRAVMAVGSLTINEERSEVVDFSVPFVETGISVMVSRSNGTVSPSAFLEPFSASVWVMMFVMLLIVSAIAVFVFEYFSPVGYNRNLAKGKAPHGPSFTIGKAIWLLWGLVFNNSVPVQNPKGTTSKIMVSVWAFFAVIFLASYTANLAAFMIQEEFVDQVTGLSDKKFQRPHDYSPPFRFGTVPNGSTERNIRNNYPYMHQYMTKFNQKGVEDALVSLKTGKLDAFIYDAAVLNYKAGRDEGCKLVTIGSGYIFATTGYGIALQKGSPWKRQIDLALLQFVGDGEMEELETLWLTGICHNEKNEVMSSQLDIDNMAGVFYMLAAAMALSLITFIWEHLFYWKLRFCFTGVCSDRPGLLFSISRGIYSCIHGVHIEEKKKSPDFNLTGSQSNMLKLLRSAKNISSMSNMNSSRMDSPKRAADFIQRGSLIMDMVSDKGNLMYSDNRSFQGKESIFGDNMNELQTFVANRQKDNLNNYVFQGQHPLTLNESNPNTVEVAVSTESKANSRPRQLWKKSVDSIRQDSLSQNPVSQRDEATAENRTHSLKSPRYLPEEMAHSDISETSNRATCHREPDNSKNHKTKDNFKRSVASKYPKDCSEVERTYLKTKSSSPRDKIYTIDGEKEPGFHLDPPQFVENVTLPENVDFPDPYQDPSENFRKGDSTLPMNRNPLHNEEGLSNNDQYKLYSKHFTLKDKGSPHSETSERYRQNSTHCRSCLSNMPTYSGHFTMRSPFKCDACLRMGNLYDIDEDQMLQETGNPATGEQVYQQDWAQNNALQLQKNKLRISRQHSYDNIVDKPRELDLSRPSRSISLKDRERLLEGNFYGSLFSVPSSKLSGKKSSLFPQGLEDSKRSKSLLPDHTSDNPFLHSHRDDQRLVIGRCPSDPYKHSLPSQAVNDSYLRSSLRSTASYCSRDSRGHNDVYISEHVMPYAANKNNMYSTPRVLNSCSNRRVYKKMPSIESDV

The term EC50 denotes the concentration at which the effect is half-maximal. In the case of `NCC(=O)O` [glycine], the EC50 on human NMDAR1A + NMDAR2A came to 1900 ± 260 nM; in assay [1], 870 ± 240 nM.
For orientation: Kd means the free concentration of one partner at which half of the binding sites on the other are occupied at equilibrium, for simple one-to-one binding. Take `CCCC(=CC(N)C(=O)O)CP(=O)(O)O` (centres unmarked) [[^3H]-CGP39653]: the Kd on NMDA receptors was 12.3 ± 0.12 nM.
In the case of `C[C@]12N[C@H](Cc3ccccc31)c1ccccc12` [MK801], in assay [2], the “Block of NMDA agonist-induced currents, in general” value is on record as “blocked”.
In the case of `[Cl-].[Cl-].[Mg+2]` [MgCl2], the “Block of NMDA agonist-induced currents, in general” value in assay [2] is given as “blocked”.
